From patent US20110306606A1, “NOVEL 2,6-SUBSTITUTED-3-NITROPYRIDINE DERIVATIVE, METHOD FOR PREPARING SAME, AND PHARMACEUTICAL COMPOSITION INCLUDING SAME” (priority 2008, published 2011)

Test system: Osteoblasts (Calvarial cells)
Assay: Cytotoxicity test (MTT)
Settings: 1 μM compound, 72 hours, in comparison with vehicle control
Method: For the preparation of osteoblasts (Calvarial cells), the calvaria were aseptically dissected from 1 to 2-day-old neonatal ICR mice and subjected to continuous reaction with a 0.2% collagenase solution to separate osteoblasts. The cell-suspended supernatant was centrifuged to recover osteoblasts which were grown to full confluence in an α-MEM supplemented with 10% FBS and then diluted to a desired cell density for use in the experiment.
Cytotoxicity of the compounds of the present invention was evaluated by carrying out the experiment described below.
The vehicle control group was established to contain 0.2% DMSO. 100 μL/well of the diluted drugs were dispensed into 96-well plates to which osteoblasts (calvarial cells) prepared in Experimental Example 1 were then added at a density of 1.0×10^4 cells/100 μL/well. Here, the final compound concentration in the cell culture was 1 μM, and the vehicle control group contained 0.1% DMSO. The cells were cultured in a 5% CO2 inhibitor at 37° for 72 hours. 25 μL of 3-(4,5-dimethyl-2-thiazolyl)-2,5-diphenyl-2H-tetrazolium bromide (MTT) dissolved in PBS (2 mg/mL) was added to each cell culture 4 hours before the end of culture. After completion of the reaction, the plates were centrifuged, the media were discarded, and 100 μL of formazan was added and dissolved in dimethyl sulfoxide (DMSO). Finally, the absorbance of the developed plates was measured at 540 nm. The cell viability was expressed as % concentration in comparison with the vehicle control group.

For `O=[N+]([O-])c1ccc(NCc2ccncc2)nc1Nc1ccc(N2CCCC(CO)C2)c(F)c1` (centres unmarked) [Compound 286, 2-{[3-fluoro-4-(3-hydroxymethylpiperidino)]phenylamino}-6-[(4-pyridyl)methylamino]-3-nitropyridine], the “Cell viability (%) Calvarial cell” value was 123%.
For `O=[N+]([O-])c1ccc(NCCc2ccccn2)nc1Nc1ccc(N2CCCC(CO)C2)c(F)c1` (centres unmarked) [Compound 287, 2-{[3-fluoro-4-(3-hydroxymethylpiperidino)]phenylamino}-6-[2-(2-pyridyl)ethylamino]-3-nitropyridine], the “Cell viability (%) Calvarial cell” value was 103%.
In the case of `O=[N+]([O-])c1ccc(NC2CC2)nc1Nc1ccc(N2CCCC(CO)C2)c(F)c1` (centres unmarked) [Compound 288, 2-{[3-fluoro-4-(3-hydroxymethylpiperidino)]phenylamino}-6-(cyclopropylamino)-3-nitropyridine], the “Cell viability (%) Calvarial cell” value is reported as 103%.
For `CNc1ccc([N+](=O)[O-])c(Nc2ccc(N3CCC(C(N)=O)CC3)c(F)c2)n1` [Compound 289, 2-{[3-fluoro-4-(4-carbamoylpiperidino)]phenylamino}-6-(methylamino)-3-nitropyridine], the “Cell viability (%) Calvarial cell” value was 115%.
With `CC(C)Nc1ccc([N+](=O)[O-])c(Nc2ccc(N3CCC(C(N)=O)CC3)c(F)c2)n1` [Compound 290, 2-{[3-fluoro-4-(4-carbamoylpiperidino)]phenylamino}-6-(isopropylamino)-3-nitropyridine] the “Cell viability (%) Calvarial cell” value was 119%.
With `CC(C)CNc1ccc([N+](=O)[O-])c(Nc2ccc(N3CCC(C(N)=O)CC3)c(F)c2)n1` [Compound 291, 2-{[3-fluoro-4-(4-carbamoylpiperidino)]phenylamino}-6-(isobutylamino)-3-nitropyridine] the “Cell viability (%) Calvarial cell” value was 87%.
In the case of `CC(C)(C)Nc1ccc([N+](=O)[O-])c(Nc2ccc(N3CCC(C(N)=O)CC3)c(F)c2)n1` [Compound 292, 2-{[3-fluoro-4-(4-carbamoylpiperidino)]phenylamino}-6-(t-butylamino)-3-nitropyridine], the “Cell viability (%) Calvarial cell” value is reported as 102%.
In the case of `NC(=O)C1CCN(c2ccc(Nc3nc(N4CCC(O)CC4)ccc3[N+](=O)[O-])cc2F)CC1` [Compound 293, 2-{[3-fluoro-4-(4-carbamoylpiperidino)]phenylamino}-6-(4-hydroxypiperidino)-3-nitropyridine], the “Cell viability (%) Calvarial cell” value is reported as 104%.
With `NC(=O)C1CCN(c2ccc(Nc3nc(N4CCNCC4)ccc3[N+](=O)[O-])cc2F)CC1` [Compound 294, 2-{[3-fluoro-4-(4-carbamoylpiperidino)]phenylamino}-6-(piperazin-1-yl)-3-nitropyridine] the “Cell viability (%) Calvarial cell” value was 95%.
With `CN1CCN(c2ccc([N+](=O)[O-])c(Nc3ccc(N4CCC(C(N)=O)CC4)c(F)c3)n2)CC1` [Compound 295, 2-{[3-fluoro-4-(4-carbamoylpiperidino)]phenylamino}-6-(4-methylpiperazin-1-yl)-3-nitropyridine] the “Cell viability (%) Calvarial cell” value was 106%.
For `NC(=O)C1CCN(c2ccc(Nc3nc(N4CCOCC4)ccc3[N+](=O)[O-])cc2F)CC1` [Compound 296, 2-{[3-fluoro-4-(4-carbamoylpiperidino)]phenylamino}-6-morpholino-3-nitropyridine], the “Cell viability (%) Calvarial cell” value was 97%.
`NC(=O)C1CCN(c2ccc(Nc3nc(N4CCC(N)CC4)ccc3[N+](=O)[O-])cc2F)CC1` [Compound 297, 2-{[3-fluoro-4-(4-carbamoylpiperidino)]phenylamino}-6-(4-aminopiperidino)-3-nitropyridine] was tested, and the “Cell viability (%) Calvarial cell” value was 107%.
For `NC(=O)C1CCN(c2ccc(Nc3nc(NCc4ccncc4)ccc3[N+](=O)[O-])cc2F)CC1` [Compound 298, 2-{[3-fluoro-4-(4-carbamoylpiperidino)]phenylamino}-6-[(4-pyridyl)methylamino]-3-nitropyridine], the “Cell viability (%) Calvarial cell” value was 108%.
`NC(=O)C1CCN(c2ccc(Nc3nc(NCCN4CCOCC4)ccc3[N+](=O)[O-])cc2F)CC1` [Compound 300, 2-{[3-fluoro-4-(4-carbamoylpiperidino)]phenylamino}-6-[2-(morpholin-1-yl)ethylamino]-3-nitropyridine] was tested, and the “Cell viability (%) Calvarial cell” value was 118%.
`CNc1ccc([N+](=O)[O-])c(Nc2ccc(N3CCCC(C(N)=O)C3)c(F)c2)n1` (centres unmarked) [Compound 301, 2-{[3-fluoro-4-(3-carbamoylpiperidino)]phenylamino}-6-(methylamino)-3-nitropyridine] was tested, and the “Cell viability (%) Calvarial cell” value was 95%.
`CC(C)Nc1ccc([N+](=O)[O-])c(Nc2ccc(N3CCCC(C(N)=O)C3)c(F)c2)n1` (centres unmarked) [Compound 302, 2-{[3-fluoro-4-(3-carbamoylpiperidino)]phenylamino}-6-(isopropylamino)-3-nitropyridine] was tested, and the “Cell viability (%) Calvarial cell” value was 103%.
For `CC(C)CNc1ccc([N+](=O)[O-])c(Nc2ccc(N3CCCC(C(N)=O)C3)c(F)c2)n1` (centres unmarked) [Compound 303, 2-{[3-fluoro-4-(3-carbamoylpiperidino)]phenylamino}-6-(isobutylamino)-3-nitropyridine], the “Cell viability (%) Calvarial cell” value was 102%.
For `CC(C)(C)Nc1ccc([N+](=O)[O-])c(Nc2ccc(N3CCCC(C(N)=O)C3)c(F)c2)n1` (centres unmarked) [Compound 304, 2-{[3-fluoro-4-(3-carbamoylpiperidino)]phenylamino}-6-(t-butylamino)-3-nitropyridine], the “Cell viability (%) Calvarial cell” value was 103%.
With `NC(=O)C1CCCN(c2ccc(Nc3nc(N4CCC(O)CC4)ccc3[N+](=O)[O-])cc2F)C1` (centres unmarked) [Compound 305] the “Cell viability (%) Calvarial cell” value was 107%.
With `NC(=O)C1CCCN(c2ccc(Nc3nc(N4CCNCC4)ccc3[N+](=O)[O-])cc2F)C1` (centres unmarked) [Compound 306, 2-{[3-fluoro-4-(3-carbamoylpiperidino)]phenylamino}-6-(piperazin-1-yl)-3-nitropyridine] the “Cell viability (%) Calvarial cell” value was 122%.
`CN1CCN(c2ccc([N+](=O)[O-])c(Nc3ccc(N4CCCC(C(N)=O)C4)c(F)c3)n2)CC1` (centres unmarked) [Compound 307, 2-{[3-fluoro-4-(3-carbamoylpiperidino)]phenylamino}-6-(4-methylpiperazin-1-yl)-3-nitropyridine] was tested, and the “Cell viability (%) Calvarial cell” value was 131%.
In the case of `NC(=O)C1CCCN(c2ccc(Nc3nc(N4CCOCC4)ccc3[N+](=O)[O-])cc2F)C1` (centres unmarked) [Compound 308, 2-{[3-fluoro-4-(3-carbamoylpiperidino)]phenylamino}-6-morpholino-3-nitropyridine], the “Cell viability (%) Calvarial cell” value is reported as 109%.
For `NC(=O)C1CCCN(c2ccc(Nc3nc(N4CCC(N)CC4)ccc3[N+](=O)[O-])cc2F)C1` (centres unmarked) [Compound 309, 2-{[3-fluoro-4-(3-carbamoylpiperidino)]phenylamino}-6-(4-aminopiperidino)-3-nitropyridine], the “Cell viability (%) Calvarial cell” value was 110%.
With `NC(=O)C1CCCN(c2ccc(Nc3nc(NCc4cccnc4)ccc3[N+](=O)[O-])cc2F)C1` (centres unmarked) [Compound 310, 2-{[3-fluoro-4-(3-carbamoylpiperidino)]phenylamino}-6-[(3-pyridyl)methylamino]-3-nitropyridine] the “Cell viability (%) Calvarial cell” value was 97%.
With `NC(=O)C1CCCN(c2ccc(Nc3nc(NCc4ccncc4)ccc3[N+](=O)[O-])cc2F)C1` (centres unmarked) [Compound 311, 2-{[3-fluoro-4-(3-carbamoylpiperidino)]phenylamino}-6-[(4-pyridyl)methylamino]-3-nitropyridine] the “Cell viability (%) Calvarial cell” value was 98%.
With `NC(=O)C1CCCN(c2ccc(Nc3nc(NCCCn4ccnc4)ccc3[N+](=O)[O-])cc2F)C1` (centres unmarked) [Compound 312, 2-{[3-fluoro-4-(3-carbamoylpiperidino)]phenylamino}-6-[(3-imidazol-1-yl)propylamino]-3-nitropyridine] the “Cell viability (%) Calvarial cell” value was 98%.
With `NC(=O)C1CCCN(c2ccc(Nc3nc(NCCN4CCOCC4)ccc3[N+](=O)[O-])cc2F)C1` (centres unmarked) [Compound 313, 2-{[3-fluoro-4-(3-carbamoylpiperidino)]phenylamino}-6-[2-(morpholin-1-yl)ethylamino]-3-nitropyridine] the “Cell viability (%) Calvarial cell” value was 106%.
For `NC(=O)C1CCCN(c2ccc(Nc3nc(NCCCN4CCOCC4)ccc3[N+](=O)[O-])cc2F)C1` (centres unmarked) [Compound 314, 2-{[3-fluoro-4-(3-carbamoylpiperidino)]phenylamino}-6-[(3-morpholin-1-yl)propylamino]-3-nitropyridine], the “Cell viability (%) Calvarial cell” value was 103%.
`CCN(CC)c1ccc([N+](=O)[O-])c(Nc2ccc(N3CCCC(C(N)=O)C3)c(F)c2)n1` (centres unmarked) [Compound 315, 2-{[3-fluoro-4-(3-carbamoylpiperidino)]phenylamino}-6-(diethylamino)-3-nitropyridine] was tested, and the “Cell viability (%) Calvarial cell” value was 104%.
`CNc1ccc([N+](=O)[O-])c(Nc2ccc(N3CCC(C(=O)O)CC3)c(F)c2)n1` [Compound 316, 2-{[3-fluoro-4-(4-carboxylicpiperidino)]phenylamino}-6-(methylamino)-3-nitropyridine] was tested, and the “Cell viability (%) Calvarial cell” value was 95%.
`CC(C)Nc1ccc([N+](=O)[O-])c(Nc2ccc(N3CCC(C(=O)O)CC3)c(F)c2)n1` [Compound 317, 2-{[3-fluoro-4-(4-carboxylicpiperidino)]phenylamino}-6-(isopropylamino)-3-nitropyridine] was tested, and the “Cell viability (%) Calvarial cell” value was 99%.
With `CC(C)CNc1ccc([N+](=O)[O-])c(Nc2ccc(N3CCC(C(=O)O)CC3)c(F)c2)n1` [Compound 318, 2-{[3-fluoro-4-(4-carboxylicpiperidino)]phenylamino}-6-(isobutylamino)-3-nitropyridine] the “Cell viability (%) Calvarial cell” value was 103%.
For `O=C(O)C1CCN(c2ccc(Nc3nc(N4CCC(O)CC4)ccc3[N+](=O)[O-])cc2F)CC1` [Compound 319, 2-{[3-fluoro-4-(4-carboxylicpiperidino)]phenylamino}-6-(4-hydroxypiperidino)-3-nitropyridine], the “Cell viability (%) Calvarial cell” value was 112%.
In the case of `CN1CCN(c2ccc([N+](=O)[O-])c(Nc3ccc(N4CCC(C(=O)O)CC4)c(F)c3)n2)CC1` [Compound 320, 2-{[3-fluoro-4-(4-carboxylicpiperidino)]phenylamino}-6-(4-methylpiperazin-1-yl)-3-nitropyridine], the “Cell viability (%) Calvarial cell” value is reported as 101%.
For `O=C(O)C1CCN(c2ccc(Nc3nc(NCc4cccnc4)ccc3[N+](=O)[O-])cc2F)CC1` [Compound 321, 2-{[3-fluoro-4-(4-carboxylicpiperidino)]phenylamino}-6-[(3-pyridyl)methylamino]-3-nitropyridine], the “Cell viability (%) Calvarial cell” value was 101%.
